Measurements: patent US20060281714A1, “Combinations of a cathepsin k inhibitor and a bisphosphonate in the treatment of bone metastasis, tumor growth and tumor-induced bone loss” (priority 2003, published 2006)

Tested on: 4T1Luc2000 mouse mammary carcinoma cells
Test: Osteolytic activity in the 4T1Luc2000 assay (intra-tibial injection of tumor cells)
Assay type: in vivo, Athymic Balb\c nude, female mice
Conditions: 50 mg/kg p.o. twice daily, in combination with Zoledronic Acid 100 ug/kg s.c. twice weekly; compared with Zoledronic Acid single treatment
Procedure: Intra-Tibial Injection of 4T1Luc2000 Mouse Mammary Carcinoma Cells:
Athymic Balb\c nude, female mice (Spezialzuchten, Stein, Switzerland) are anaesthetized by i.p. administration of […] ketarom: a mixture of 100 mg/kg Ketalar® 50 (Parker-Davis, Zurich, Switzerland) and 10 mg/kg xylazine (Rompun®, Bayer, Lyssach, Switzerland). Using a 30 gauze needle a cell suspension of […] in […] of HBSS (Invitrogen, Basel Switzerland) is injected through the articular cartilage and epiphysis into the tibia. In total, 48 animals in 6 groups, 8 animals each, are used in this study. […]
Peripheral Quantitative Computed Tomography (pQCT), End-Point Determination:
Total, cortical, and cancellous bone mass and geometry are monitored using an XCT-Research SA+ (Stratec-Norland, Pforzheim, Germany) fitted with a 0.5 mm collimator. […] Slices located 2, 3, 4, and 5 mm distal from the intercondylar tubercle in the proximal tibia metaphysis are analysed. […]
3D structural parameters of cancellous bone are measured non-invasively by microCT as described. […] A region of 200 slices at a position of 1 mm below the growth plate (secondary spongiosa) corresponding to the site of injection of the 4T1luc2000 cells is measured at a nominal resolution of approximately 15 μm (FIG. 3). […]
All results from the bone studies are expressed as mean *standard error (SEM). […]

CCCN1CCC(c2ccc(C(=O)NC3(C(=O)NCC#N)CCCCC3)cc2)CC1 [N-[1-(Cyanomethyl-carbamoyl)-cyclohexyl]-4-(1-propyl-piperidin-4-yl)-benzamide]
anti-osteolytic activity: additive anti-osteolytic activity which is superior to Zoledronic Acid single treatment
